Reference: ChEMBL document CHEMBL1687904, “Pestaloquinols A and B, isoprenylated epoxyquinols from Pestalotiopsis sp” (J Nat Prod, 2011)

Tested on: HeLa
Experiment: Cytotoxicity against human HeLa cells after 48 hrs by MTT assay
Type: functional, cell-based

Structure (SMILES)	IC50 [nM]
CCCCC[C@@H]1OC=C2[C@@H]3OC(C)(C)[C@@H](O)C[C@@]34O[C@H]4C(=O)[C@]23[C@H]1[C@H]1C2=C([C@H]4OC(C)(C)[C@@H](O)C[C@@]45O[C@H]5C2=O)[C@@H]3O[C@@H]1CCCCC [PESTALOQUINOL A]	1630
CCCCC[C@@H]1O[C@@H]2C3=C(C(=O)[C@@H]4O[C@@]45C[C@H](O)C(C)(C)O[C@H]35)[C@H]1[C@H]1[C@H](CCCCC)OC=C3[C@@H]4OC(C)(C)[C@@H](O)C[C@@]45O[C@H]5C(=O)[C@@]312 [PESTALOQUINOL B]	880
